Measured values published in patent US8586034B2, “Cytomegalovirus disintegrin-like peptides” (priority 2004, dated 2013).

Experiments:
HCMV = assay: Viral payload delivery, pp65 localization; format: cell-based, Human cytomegalovirus; conditions: human fibroblasts treated, then infected with HCMV
Procedure: (§1) For CMV entry assays, subconfluent cells were grown on glass coverslips in 12-well plates. Integrin neutralizing antibodies or peptides were incubated in serum-free DMEM with cell monolayer for 30 minutes at 37° C. Cells were washed with phosphate-buffered saline (PBS) and incubated with HCMV strain AD169, MCMV Smith strain, or MCMV-GFP for 60 minutes at 37° C. Any non-penetrated virus was inactivated with low-pH citrate buffer (40 mM citric acid, 10 mM KCl, 135 mM NaCl, pH 3.0). The cells were incubated 20-24 hours at 37° C. in DMEM supplemented with 2% bovine calf serum (BCS). […] Experiments were performed in triplicate with a minimum of 1000 cells scored per coverslip. […] Cells were incubated 6 hours at 37° C. in DMEM supplemented with 10% BCS prior to lysis (100 mM sodium phosphate, 10 mM KCl, 1 mM magnesium sulfate, 0.1% NP-40, pH 7.4). β-galactosidase activity was measured by addition of o-nitrophenyl-β-D-galactopyranoside (ONPG) and the absorbance was monitored at 420 nm.
Next, an assay was performed that directly measured delivery of an internal virion component. […] FIG. 6B is a histogram showing the results of a series of assays wherein human fibroblasts were treated with various integrin-blocking agents, infected with HCMV, and then assayed for viral payload as measured by pp65 localization. […]

HCMV strain AD169 = assay: Virus entry assay, HCMV infectivity by IE gene expression; format: cell-based, Human cytomegalovirus; conditions: NHDFs treated prior to HCMV challenge
Procedure: as §1
FIG. 2A presents the results of a series of assays wherein NHDFs were treated with HCMV gB disintegrin-like peptide, gB disintegrin-like Null peptide, RGD, or RGE peptide prior to HCMV challenge (as indicated in the FIG. 2A). Infectivity was determined by IE gene expression. […]

MCMV Smith strain = assay: Virus entry assay, MCMV infectivity by e1-positive cells; format: cell-based, Murine cytomegalovirus; conditions: mouse fibroblasts (murine 3T3) treated with peptide
Procedure: as §1, with “nm. […]” for “nm.”
FIG. 4B is a histogram showing the results of an assay wherein GD25, GD25β1 and 3T3 cells were treated with β1, β3, and β1+β3 antibodies, followed by MCMV infection. As described above, infectivity was determined by scoring e1-(early protein) positive cells. […]

HSV-1(KOS)gL86 = assay: HSV entry assay (β-galactosidase activity); format: cell-based, herpes simplex virus-1; conditions: NHDF cells treated with peptide
Procedure: For CMV entry assays, subconfluent cells were grown on glass coverslips in 12-well plates. Integrin neutralizing antibodies or peptides were incubated in serum-free DMEM with cell monolayer for 30 minutes at 37° C. Cells were washed with phosphate-buffered saline (PBS) and incubated with HCMV strain AD169, MCMV Smith strain, or MCMV-GFP for 60 minutes at 37° C. Any non-penetrated virus was inactivated with low-pH citrate buffer (40 mM citric acid, 10 mM KCl, 135 mM NaCl, pH 3.0). The cells were incubated 20-24 hours at 37° C. in DMEM supplemented with 2% bovine calf serum (BCS). Immunofluorescence analysis was performed as previously described^28 with either mouse anti-IE monoclonal antibody 1203, mouse anti-pp65 monoclonal antibody or rabbit anti-MCMV e1 polyclonal, followed by detection with a fluorescein-conjugated goat anti-mouse secondary or a fluorescein-conjugated goat anti-rabbit secondary antibody. Nuclei were stained with 300 nM 4′,6-diamidino-2-phenylindole (DAPI). Experiments were performed in triplicate with a minimum of 1000 cells scored per coverslip. […] Cells were incubated 6 hours at 37° C. in DMEM supplemented with 10% BCS prior to lysis (100 mM sodium phosphate, 10 mM KCl, 1 mM magnesium sulfate, 0.1% NP-40, pH 7.4). β-galactosidase activity was measured by addition of o-nitrophenyl-β-D-galactopyranoside (ONPG) and the absorbance was monitored at 420 nm. […]

HCMV AD 169 = assay: Virus binding assay (HCMV attachment, gB ELISA); format: cell-based, Human cytomegalovirus; conditions: NHDF, 4° C.; 1 mM gB disintegrin-like peptide, 1:50 DE9, α2 and α6 integrin antibodies 20 μg/mL
Procedure: NHDF cells were grown in 96-well plates and treated with integrin-neutralizing antibodies, peptides, or heparin for 60 minutes at 4° C. Cells were then challenged with HCMV AD 169 at a multiplicity of infection (MOI) of 5 pfu/cell for 60 minutes at 4° C. Unbound virus was removed and cells were washed and fixed with 3% paraformaldehyde. Bound HCMV was detected with monoclonal antibody 27-78, horseradish peroxidase (HRP)-conjugated goat anti-mouse secondary antibody, and ImmunoPure TMB Substrate Kit (Pierce, Rockford, Ill.). Absorbance was measured at 450 nm. All experiments were performed in triplicate.
During virus infection, integrins are utilized as primary viral attachment receptors or as post-attachment (fusion-activating) or internalization receptors.^11 To determine at which step in the HCMV entry pathway integrins are functioning, cell binding (i.e., attachment) experiments were performed, as well as assays to measure viral payload delivery into the cytoplasm (internalization). For the binding assays, virus was bound at 4° C. to allow for stable virus binding, but to restrict fusion and internalization. The results are depicted in FIG. 6A. […] Attachment was measured by gB ELISA.

diI-labeled HCMV = format: cell-based, Human cytomegalovirus; conditions: gBDLD or BSA 320 μg/mL, soluble heparin 50 μg/mL; 24 hours post-infection

**Q.** What does the source list for “AVCSMAGGTAAIRAERNIIC (listed as Human cytomegalovirus) [gB disintegrin-like null peptide, null peptide with alanine substitutions in the disintegrin-like consensus residues, reference compound]”?
**A.** uptake of pp65 tegument protein (HCMV): not; HCMV infectivity (IE gene expression) (HCMV strain AD169): able to infect

**Q.** “RVCSMAQGTDLIRFERNIIC (listed as Human cytomegalovirus) [gB disintegrin-like peptide, synthetic 20 amino acid peptide encompassing the HCMV gB disintegrin-like domain]” was tested. Which MCMV infectivity (MCMV Smith strain) did it give?
**A.** The MCMV infectivity was “dramatic reduction in MCMV infectivity”.

**Q.** What about the “uptake of pp65 tegument protein” value (HCMV) of the same substance?
**A.** Its value is “little uptake”.

**Q.** What about the “HCMV infectivity (IE gene expression)” value (HCMV strain AD169) of the same substance?
**A.** The value was “dose-dependent inhibitory response”.

**Q.** And the “ability of HSV-1 to infect cells” value (HSV-1(KOS)gL86)?
**A.** The value was “no effect”.

**Q.** And the “HCMV attachment (gB ELISA)” value (HCMV AD 169)?
**A.** Its value is “no effect”.

**Q.** What does the source list for “heparin [soluble heparin, reference compound]”?
**A.** HCMV fusion (dye transfer) and gene expression (diI-labeled HCMV): blocks HCMV attachment; HCMV attachment (gB ELISA) (HCMV AD 169): prevented virus attachment
